Laboratory results from patent publication US20090270459A1, “Flea control agent containing N-Substituted indole derivative” (priority 2001, published 2009).

Legend:
[1] = test system: adult cat fleas; assay: Effect on cat flea (1): glass tube residue contact test, knock-down and mortality; format: in vivo, cat flea (Ctenocephalides felis); parameters: After 3 hours (KD) knocking-down rate: unit not given here
Experimental: Each compound was dissolved in acetone to a predetermined concentration and 0.1 ml of the resulting solution was dropped into the bottom of a glass tube with a diameter of 2.8 cm and a height of 12 cm and air-dried. After the air-drying, 10 adult cat fleas were placed in the glass tube and the glass tube was closed with nylon mesh and allowed to stand under conditions of a room temperature of 26° C. and a humidity of 80%. The knocked-down (KD) fleas after 3 hours and the dead and alive after 24 hours and 48 hours were counted, and the knocking-down rate and the mortality were calculated. Fipronil was used as a positive control. In a control experiment, no treatment with an agent was carried out.

[2] = test system: std:ddy strain male mice; assay: Toxicity to mouse, administration into the stomach; format: in vivo
Experimental: The compound listed in Table 1 or Fipronil was dissolved in olive oil to a predetermined concentration, and the resulting solution was directly administered into the stomachs of std:ddy strain male mice by the use of a probe. The dose was 30 mg/kg or 100 mg/kg. Whether the mice were alive or dead was observed 3 hours, 1 day, 7 days and 14 days after the administration.

[3] = test system: adult cat fleas made parasitic on the cat body; assay: Effect on cat flea (3): residual effect after spot-on of 10% liquid drops on cat, re-infestation; format: in vivo, cat flea (Ctenocephalides felis) on cat; details: for Number of living fleas on the second day after inoculation: 30 fleas inoculated
Excerpt: After the dropping, 30 adult cat fleas were made parasitic on the cat body after a predetermined number of weeks. On the second day after this inoculation with the parasites, the living fleas on the cat body were counted by the use of a flea-removing comb.

[4] = test system: cat fleas parasitic on a cat; assay: Effect on cat flea (2): spot-on of 10% liquid drops on flea-infested cat, cumulative fall rate; format: in vivo, cat flea (Ctenocephalides felis) on cat; details: for Cumulative fall rate (%) After 2 hours: cat with 30 cat fleas
Experimental: Fleas that had fallen from the cat body were counted at intervals of 2 hours until 8 hours after the dropping of the solution, and the cumulative fall rate was calculated. In addition, fleas that had fallen in 24 hours were counted and the cumulative fall rate after 1 day was calculated. Two days after the dropping, the living fleas on the cat body were counted by the use of a flea-removing comb.

[5] = test system: cat; assay: Toxicity to cat, spot-on dropping of liquid drops; details: for Clinical symptom: 0.5 ml spot-on, cat, listed as No. 17
Excerpt: After the dropping, the clinical symptom of the cat was observed.

[6] = 1 mg/tube, 10 adult cat fleas, 26° C., humidity 80%
[7] = 30 mg/kg into the stomach, in olive oil, male mice

| Compound | After 3 hours (KD) knocking-down rate ([1]; 0.001 mg/tube) | After 1 day (mortality) ([1]; 0.001 mg/tube) | After 2 days (mortality) ([1]; 0.001 mg/tube) | After 3 hours (KD) knocking-down rate ([1]; 0.01 mg/tube) | After 1 day (mortality) ([1]; 0.01 mg/tube) | After 2 days (mortality) ([1]; 0.01 mg/tube) | After 3 hours (KD) knocking-down rate ([1]; 0.1 mg/tube) | After 1 day (mortality) ([1]; 0.1 mg/tube) | After 2 days (mortality) ([1]; 0.1 mg/tube) | After 1 day (mortality) ([1]; 1 mg/tube) | After 2 days (mortality) ([1]; 1 mg/tube) | After 3 hours (KD) knocking-down rate [1, 6] | Cumulative mortality After 1 day ([2]; 30 mg/kg) | Cumulative mortality After 7 days ([2]; 30 mg/kg) | Cumulative mortality After 14 days ([2]; 30 mg/kg) | Cumulative mortality After 3 hours [2, 7] | Cumulative mortality After 3 hours ([2]; 100 mg/kg) | Cumulative mortality After 1 day ([2]; 100 mg/kg) | Cumulative mortality After 7 days ([2]; 100 mg/kg) | Cumulative mortality After 14 days ([2]; 100 mg/kg) | also measured |
| --- | --- | --- | --- | --- | --- | --- | --- | --- | --- | --- | --- | --- | --- | --- | --- | --- | --- | --- | --- | --- | --- |
| FC(F)(F)Sc1cn(-c2c(Cl)cc(C(F)(F)F)cc2Cl)c2ccccc12 [Compound 25, 1-(2,6-dichloro-4-trifluoromethylphenyl)-3-(trifluoromethylthio)indole] | 0 | 0% | 30% | 0 | 70% | 100% | 10 | 100% | 100% | 90% | 100% | 100 | 0/5 | 0/5 | 0/5 | 0/5 | 0/5 | 0/5 | 0/5 | 0/5 | – |
| FC(Cl)(Cl)Sc1cn(-c2c(Cl)cc(C(F)(F)F)cc2Cl)c2ccccc12 [Compound 17, 1-(2,6-dichloro-4-trifluoromethylphenyl)-3-(dichlorofluoromethylthio)indole] | 0 | 10% | 40% | 0 | 70% | 100% | 0 | 100% | 100% | 100% | 100% | 50 | 0/5 | 0/5 | 0/5 | 0/5 | 0/5 | 0/5 | 0/5 | 0/5 | Duration of the aftereffect ([3]; 0.5 ml of 10% solution spot-on, cat): about 6 weeks; Number of living fleas on the second day after inoculation ([3]; 1 week after administration, 0.5 ml of 10% solution): 0; Number of living fleas on the second day after inoculation ([3]; 2 weeks after administration): 0; Number of living fleas on the second day after inoculation ([3]; 4 weeks after administration): 0; Number of living fleas on the second day after inoculation ([3]; 6 weeks after administration): 6; Number of living fleas on the second day after inoculation ([3]; 6 weeks after administration, listed as No. 17): six; Number of living fleas on the second day after inoculation ([3]; 8 weeks after administration): 13; Number of living fleas on the second day after inoculation ([3]; 8 weeks after administration, listed as No. 17): thirteen; Killing of the fleas until 4 weeks after the dropping ([3]; until 4 weeks after the dropping): completely killed the fleas; Fate of the fleas that had fallen from the cat body ([4]; 0.5 ml of 10% solution spot-on): died within several hours; Cumulative fall rate (%) After 4 hours ([4]; 0.5 ml of 10% solution spot-on): 15%; Cumulative fall rate (%) After 6 hours ([4]; 0.5 ml of 10% solution spot-on): 37%; Cumulative fall rate (%) After 8 hours ([4]; 0.5 ml of 10% solution spot-on): 47%; Cumulative fall rate (%) After 24 hours ([4]; 0.5 ml of 10% solution spot-on): 100%; Cumulative fall rate (%) After 2 hours ([4]; 0.5 ml of 10% solution spot-on): 0%; Toxicity to cat ([5]; 10, 20 or 30% liquid drops spot-on): only low toxicity; Clinical symptom ([5]; dropping concentration 10%): no abnormal sign; Clinical symptom ([5]; dropping concentration 20%): no abnormal sign; Clinical symptom ([5]; dropping concentration 30%): no abnormal sign |
| FC(Cl)(Cl)Sc1cn(-c2ncc(C(F)(F)F)cc2Cl)c2ccccc12 [Compound 1, 1-(3-chloro-5-trifluoromethylpyridin-2-yl)-3-(dichlorofluoromethyl-thio)indole] | 0 | 10% | 40% | 0 | 70% | 100% | 0 | 100% | 100% | 100% | 100% | 80 | – | – | – | – | – | – | – | – | – |
| O=S(=O)(c1cn(-c2c(Cl)cc(C(F)(F)F)cc2Cl)c2ccccc12)C(F)(Cl)Cl [Compound 32] | 0 | 0% | 0% | 0 | 0% | 20% | 0 | 30% | 100% | 100% | 100% | 0 | – | – | – | – | – | – | – | – | – |
| FC(Cl)(Cl)Sc1cn(-c2c(Cl)cc(C(F)(F)F)cc2Cl)c2ccc(Cl)cc12 [Compound 19] | – | – | – | 0 | 30% | 90% | 0 | 60% | 100% | 100% | 100% | 0 | – | – | – | – | – | – | – | – | – |
| FC(Cl)(Cl)Sc1cn(-c2ncc(C(F)(F)F)cc2Cl)c2ccc(Cl)cc12 [Compound 3] | 0 | 20% | 20% | 0 | 10% | 20% | 0 | 40% | 70% | 50% | 90% | 0 | – | – | – | – | – | – | – | – | – |
| Fc1ccc2c(c1)c(SC(F)(Cl)Cl)cn2-c1ncc(C(F)(F)F)cc1Cl [Compound 2, 1-(3-chloro-5-trifluoromethylpyridin-2-yl)-3-(dichlorofluoromethylthio)-5-fluoroindole] | 0 | 0% | 0% | 0 | 10% | 50% | 0 | 100% | 100% | 100% | 100% | 0 | – | – | – | – | – | – | – | – | – |
| Cc1c(SC(F)(Cl)Cl)c2ccccc2n1-c1ncc(C(F)(F)F)cc1Cl [Compound 14, 1-(3-chloro-5-trifluoromethylpyridin-2-yl)-3-(dichlorofluoromethylthio)-2-methylindole] | 0 | 20% | 30% | 0 | 50% | 100% | 0 | 100% | 100% | 100% | 100% | 0 | 0/5 | 0/5 | 0/5 | 0/5 | 0/5 | 0/5 | 0/5 | 0/5 | – |
| N#Cc1nn(-c2c(Cl)cc(C(F)(F)F)cc2Cl)c(N)c1[S+]([O-])C(F)(F)F (stereo not drawn) [Fipronil, 5-amino-1-(2,6-dichloro-4-(trifluoromethyl)phenyl)-4-((trifluoromethyl)sulfinyl)-1H-pyrazole-3-carbonitrile, reference compound] | 0 | 20% | 20% | 0 | 20% | 90% | 0 | 100% | 100% | 100% | 100% | 0 | 1/5 | 1/5 | 1/5 | 0/5 | 1/5 | 5/5 | 5/5 | 5/5 | Cumulative fall rate (%) After 4 hours ([4]; 0.5 ml of 10% solution spot-on): 3%; Cumulative fall rate (%) After 6 hours ([4]; 0.5 ml of 10% solution spot-on): 20%; Cumulative fall rate (%) After 8 hours ([4]; 0.5 ml of 10% solution spot-on): 27%; Cumulative fall rate (%) After 24 hours ([4]; 0.5 ml of 10% solution spot-on): 90%; Dead fleas found on the body of the cat ([4]; 24 hours after the dropping, 0.5 ml of 10% solution): three; Cumulative fall rate (%) After 2 hours ([4]; 0.5 ml of 10% solution spot-on): 0% |
